One series deals with HCMV strain AD169. Put plainly: Human Cytomegalovirus Assay (HCMV DNA hybridization). The format is cell-based. The settings on record: HCMV strain AD169 on MRC5 cell monolayers, 5 days incubation, antiviral effect from HCMV DNA by quantitative hybridization. On the procedure:
HCMV strain AD169 was grown on monolayers of human embryonic lung cells (MRC5 cells) in 96 well plates. After infection of the cells at a ratio of approximately 0.01 infectious virus particles per cell, the compounds to be tested were added to selected wells at six different concentrations, each in triplicate. The same concentrations of compound were also applied to wells containing monolayers of uninfected cells in order to assess compound cytotoxicity. The plates were incubated for 5 days, and the minimum cytotoxic dose was estimated from microscopic examination. The IC50 for antiviral effect was estimated from measurements of HCMV DNA in each well by blotting and quantitative specific DNA hybridization, similar to the method of Gadler (Antimicrob. Agents Chemother. 1983, 24, 370-374).

Usually melting point stands for the temperature of the solid-liquid transition. As a reminder, the IC50 is the point on the concentration scale where inhibition reaches its midpoint.

As to `CC(=O)O[C@@H]1[C@H](OC(C)=O)[C@H](OC(C)=O)CO[C@H]1n1c(Br)nc2cc(Cl)c(Cl)cc21` [Example 1, 2-Bromo-5,6-dichloro-1-(2,3,4-tri-O-acetyl-beta-D-ribopyranosyl)-1H-benzimidazole], the melting point fell in the range of 100 to 110 °C. The molecule also returned an IC50 with HCMV strain AD169 (Human betaherpesvirus 5, 120 h) of 1000 nM.

In turn, `OC[C@@H]1OC[C@H](n2c(Br)nc3cc(Cl)c(Cl)cc32)[C@@H](O)[C@H]1O` [Example 42, (3S,4R,5R,6S)-2-Bromo-5,6-dichloro-1-(tetrahydro-4,5-dihydroxy-6-(hydroxymethyl)-2H-pyran-3-yl)-1H-benzimidazole] registered a melting point of 207 to 208 °C.

On to `CC(C)Nc1nc2cc(Cl)c(Cl)cc2n1[C@@H]1OC[C@@H](O)[C@@H](O)[C@H]1O` [Example 3, 5,6-Dichloro-N-1(1-methylethyl)-1-beta-D-ribopyranosyl-1H-benzimidazole-2-amine], for which, in the series on HCMV strain AD169, the IC50 worked out at 22000 nM.

`CC(=O)O[C@@H]1[C@H](OC(C)=O)[C@@H](n2c(Br)nc3cc(Cl)c(Cl)cc32)OC[C@@H]1OC(C)=O` [Example 4, 2-Bromo-5,6-dichloro-1-(2,3,4-tri-O-acetyl-beta-L-ribopyranosyl)-1H-benzimidazole] had a melting point of 110 °C.

Regarding `Cc1cc2nc(Br)n([C@@H]3OC[C@@H](O)[C@@H](O)[C@H]3O)c2cc1Cl` [Example 13, 2-Bromo-6-chloro-5-methyl-1-beta-D-ribopyranosyl-1H-benzimidazole], the melting point was 170 to 175 °C (dec.). The molecule further had an IC50 in the series with HCMV strain AD169 (Human betaherpesvirus 5, 120 h) of 6000 nM.

Regarding `O[C@H]1[C@H](O)[C@@H](n2c(Br)nc3cc(Cl)c(Cl)cc32)OC[C@@H]1O` [Example 57, 2-Bromo-5,6-dichloro-1-beta-L-xylopyranosyl-1H-benzimidazole], the melting point is 164 to 165 °C.

For `O[C@@H]1CCCC[C@H]1n1c(NC2CC2)nc2cc(Cl)c(Cl)cc21` (racemic) [Example 46, (±)-trans-2-[5,6-Dichloro-2-(cyclopropylamino)-1H-benzimidazol-1-yl]cyclohexanol], the melting point lay within 149 to 151 °C.

In turn, `OC[C@H]1OC[C@@H](n2c(Br)nc3cc(Cl)c(Cl)cc32)[C@H](O)[C@@H]1O` [Example 40, (3R,4S,5S,6R)-2-Bromo-5,6-dichloro-1-(tetrahydro-4,5-dihydroxy-6-(Hydroxymethyl)-2H-pyran-3-yl)-1H-benzimidazole] had a melting point of 207 to 209 °C.

Turning to `OC[C@H]1OC[C@@H](n2c(NC3CC3)nc3cc(Cl)c(Cl)cc32)[C@H](O)[C@@H]1O` [Example 41, (3R,4S ,5S ,6R)-5,6-Dichloro-2-(cyclopropylamino)-1-(tetrahydro-4,5-dihydroxy-6-(hydroxymethyl)-2H-pyran-3-yl)-1H-benzimidazole], the melting point is 244 °C (dec.).

On to “2-Bromo-5,6-dichloro/4-fluoro-1-beta-D-ribopyranosyl-1H-benzimidazole [Example 24]”, for which the IC50 in the series with HCMV strain AD169 is 900 nM.

`OC[C@@H]1OC[C@H](n2c(NC3CC3)nc3cc(Cl)c(Cl)cc32)C[C@H]1O` [Example 39, (3R,5R,6S)-5,6-Dichloro-2-(cyclopropylamino)-1-(tetrahydro-5-hydroxy-6-(hydroxymethyl)2H-pyran-3-yl)-1H-benzimidazole] returned a melting point of 98 to 99 °C.

As for `OC[C@@H]1OC[C@H](n2c(NC3CC3)nc3cc(Cl)c(Cl)cc32)[C@@H](O)[C@H]1O` [Example 43, (3S,4R,5R,6S)-5,6-Dichloro-2-(cyclopropylamino)-1-(tetrahydro-4,5-dihydroxy-6-(hydroxymethyl)-2H-pyran-3-yl)-1H-benzimidazole], the melting point was found to be 164 °C.

Regarding `O[C@@H]1[C@H](O)[C@H](O)CO[C@H]1n1c(Br)nc2cc(Cl)c(Cl)cc21` [Example 2, 2-Bromo-5,6-dichloro-1-beta-D-ribopyranosyl-1H-benzimidazole], the melting point was 175 °C (dec.). Also, the midpoint of inhibition in the series with HCMV strain AD169 (Human betaherpesvirus 5, 120 h), the IC50, lay at 700 nM.

Take `O[C@@H]1CCCC[C@H]1n1c(Br)nc2cc(Cl)c(Cl)cc21` (racemic) [Example 45, (±)-trans-2-(2-Bromo-5,6-dichloro-1H-benzimidazol-1-yl)cyclohexanol]: the melting point was 201 to 202 °C.
